Assay results published in PubChem BioAssay AID1845203 (Molecular Pharmacology Branch, DTP, NCI, 2023).

Test system: G-401 tumor spheroids, viability % test/control
Assay: Anticancer human tumor G-401 cell line growth inhibition;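 further: spheroids exposed to compound for 7 days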;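 on viability, T/C: 100% = DMSO vehicle-treated spheroids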
Details: spheroids with HUVEC and MSC; for IC50: curve of first compound; for viability, T/C: stronger effect = lower value
Procedure, shortened: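 Single agents and combinations were tested on spheroids built from tumor cells plus HUVEC and hMSC, at half-log dilutions starting at or near clinical Cmax, else 10 microM; final DMSO 0.25% (v/v).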

[1] = second compound 0.003 µM, first compound 0.0316 µM
[2] = second compound 0.003 µM, first compound 0.1 µM
[3] = second compound 0.003 µM, first compound 0.316 µM
[4] = second compound 0.003 µM, first compound 1 µM
[5] = second compound 0.003 µM, first compound 3.16 µM
[6] = second compound 0.003 µM, first compound 10 µM
[7] = second compound 0.00949 µM, first compound 0.0316 µM
[8] = second compound 0.00949 µM, first compound 0.1 µM
[9] = second compound 0.00949 µM, first compound 0.316 µM
[10] = second compound 0.00949 µM, first compound 1 µM
[11] = second compound 0.00949 µM, first compound 3.16 µM
[12] = second compound 0.00949 µM, first compound 10 µM
[13] = second compound 0.03 µM, first compound 0.0316 µM
[14] = second compound 0.03 µM, first compound 0.1 µM
[15] = second compound 0.03 µM, first compound 0.316 µM
[16] = second compound 0.03 µM, first compound 1 µM
[17] = second compound 0.03 µM, first compound 3.16 µM
[18] = second compound 0.03 µM, first compound 10 µM
[19] = second compound 0.0949 µM, first compound 0.0316 µM
[20] = second compound 0.0949 µM, first compound 0.1 µM
[21] = second compound 0.0949 µM, first compound 0.316 µM
[22] = second compound 0.0949 µM, first compound 1 µM
[23] = second compound 0.0949 µM, first compound 3.16 µM
[24] = second compound 0.0949 µM, first compound 10 µM
[25] = second compound 0.3 µM, first compound 0.0316 µM
[26] = second compound 0.3 µM, first compound 0.1 µM
[27] = second compound 0.3 µM, first compound 0.316 µM
[28] = second compound 0.3 µM, first compound 1 µM
[29] = second compound 0.3 µM, first compound 3.16 µM
[30] = second compound 0.3 µM, first compound 10 µM

| Structure (SMILES) | IC50 (second compound 0.003 µM) | IC50 (second compound 0.00949 µM) | IC50 (second compound 0.03 µM) | IC50 (second compound 0.0949 µM) | IC50 (second compound 0.3 µM) | viability, T/C [1] | viability, T/C [2] | viability, T/C [3] | viability, T/C [4] | viability, T/C [5] | viability, T/C [6] | viability, T/C [7] | viability, T/C [8] | viability, T/C [9] | viability, T/C [10] | viability, T/C [11] | viability, T/C [12] | viability, T/C [13] | viability, T/C [14] | viability, T/C [15] | further results |
| --- | --- | --- | --- | --- | --- | --- | --- | --- | --- | --- | --- | --- | --- | --- | --- | --- | --- | --- | --- | --- | --- |
| CC1COCCN1c1cc(-c2ccnn2C)c2ccnc(-c3ccn[nH]3)c2n1 (stereo not given) + CC[C@@]1(O)C(=O)OCc2c1cc1n(c2=O)Cc2cc3c(CN(C)C)c(O)ccc3nc2-1 | < 31.6 nM | < 31.6 nM | < 31.6 nM | < 31.6 nM | < 31.6 nM | 38.2% | 17.3% | 13.4% | 13.5% | 15% | 15.1% | 16.6% | 11.1% | 9.94% | 10.2% | 12.7% | 14.6% | 12.9% | 11.1% | 10.6% | viability, T/C [16]: 10%; viability, T/C [17]: 11.1%; viability, T/C [18]: 12.1%; viability, T/C [19]: 10.7%; viability, T/C [20]: 8.92%; viability, T/C [21]: 8.64%; viability, T/C [22]: 8.17%; viability, T/C [23]: 8.68%; viability, T/C [24]: 9.11%; viability, T/C [25]: 6.09%; viability, T/C [26]: 5.5%; viability, T/C [27]: 5.49%; viability, T/C [28]: 4.45%; viability, T/C [29]: 4.16%; viability, T/C [30]: 3.75% |
| COc1cc(C)[nH]c(=O)c1CN1CCc2c(Cl)cc(C(OC)C3COC3)c(Cl)c2C1=O (stereo not given) + CC[C@@]1(O)C(=O)OCc2c1cc1n(c2=O)Cc2cc3c(CN(C)C)c(O)ccc3nc2-1 | 130 nM | < 31.6 nM | < 31.6 nM | < 31.6 nM | < 31.6 nM | 85.9% | 52.9% | 37.2% | 31.9% | 29.3% | 23.8% | 49.9% | 44.4% | 26.1% | 23.6% | 23.3% | 19.6% | 16% | 13.7% | 10.3% | viability, T/C [16]: 11.8%; viability, T/C [17]: 12%; viability, T/C [18]: 9.84%; viability, T/C [19]: 7.14%; viability, T/C [20]: 7.77%; viability, T/C [21]: 7.29%; viability, T/C [22]: 6.9%; viability, T/C [23]: 6.42%; viability, T/C [24]: 6.61%; viability, T/C [25]: 5.24%; viability, T/C [26]: 5.58%; viability, T/C [27]: 5.45%; viability, T/C [28]: 5.13%; viability, T/C [29]: 5.04%; viability, T/C [30]: 4.44% |
| Cc1cc(C)c(CNC(=O)c2cc(-c3ccc(CN4CCOCC4)cc3)cc3c2cnn3C2CCCC2)c(=O)[nH]1 + CC[C@@]1(O)C(=O)OCc2c1cc1n(c2=O)Cc2cc3c(CN(C)C)c(O)ccc3nc2-1 | 4210 nM | < 31.6 nM | < 31.6 nM | < 31.6 nM | < 31.6 nM | 79.7% | 81.4% | 75.1% | 75.1% | 58.2% | 24.3% | 47.1% | 39.4% | 32.9% | 33.2% | 22.1% | 14.2% | 13.4% | 12.7% | 11% | viability, T/C [16]: 9.58%; viability, T/C [17]: 7.81%; viability, T/C [18]: 7.38%; viability, T/C [19]: 7.91%; viability, T/C [20]: 8.43%; viability, T/C [21]: 7.6%; viability, T/C [22]: 6.51%; viability, T/C [23]: 5.89%; viability, T/C [24]: 5.15%; viability, T/C [25]: 5.19%; viability, T/C [26]: 5.25%; viability, T/C [27]: 4.23%; viability, T/C [28]: 4.83%; viability, T/C [29]: 4.3%; viability, T/C [30]: 4.73% |
| [2H]c1nc(C)nc([2H])c1-c1cc(NC[C@@H](C)c2cccc3c(C(=O)NC)ccnc23)ncn1 + CC[C@@]1(O)C(=O)OCc2c1cc1n(c2=O)Cc2cc3c(CN(C)C)c(O)ccc3nc2-1 | > 10000 nM | < 31.6 nM | < 31.6 nM | < 31.6 nM | < 31.6 nM | 83.5% | 94.3% | 85.3% | 82.5% | 75.9% | 81% | 45.4% | 47.3% | 47.1% | 40.1% | 38.9% | 30.1% | 14.6% | 17.2% | 14% | viability, T/C [16]: 16.9%; viability, T/C [17]: 15.4%; viability, T/C [18]: 12.3%; viability, T/C [19]: 7.88%; viability, T/C [20]: 8.52%; viability, T/C [21]: 8.28%; viability, T/C [22]: 7.66%; viability, T/C [23]: 7.94%; viability, T/C [24]: 6.94%; viability, T/C [25]: 4.71%; viability, T/C [26]: 4.82%; viability, T/C [27]: 5.34%; viability, T/C [28]: 5%; viability, T/C [29]: 4.69%; viability, T/C [30]: 5.48% |
